Three compounds from patent US10344060B2 (priority 2013, dated 2019) can be followed below.

The experiment has as its target hNav1.7 (Homo sapiens, UniProt Q15858). The experiment can be described thus: cell-based. It is filed as cell-based. Conditions: ratio of PX tonic IC50 values; Table 11.

hNav1.7, sequence (Q15858 whole entry): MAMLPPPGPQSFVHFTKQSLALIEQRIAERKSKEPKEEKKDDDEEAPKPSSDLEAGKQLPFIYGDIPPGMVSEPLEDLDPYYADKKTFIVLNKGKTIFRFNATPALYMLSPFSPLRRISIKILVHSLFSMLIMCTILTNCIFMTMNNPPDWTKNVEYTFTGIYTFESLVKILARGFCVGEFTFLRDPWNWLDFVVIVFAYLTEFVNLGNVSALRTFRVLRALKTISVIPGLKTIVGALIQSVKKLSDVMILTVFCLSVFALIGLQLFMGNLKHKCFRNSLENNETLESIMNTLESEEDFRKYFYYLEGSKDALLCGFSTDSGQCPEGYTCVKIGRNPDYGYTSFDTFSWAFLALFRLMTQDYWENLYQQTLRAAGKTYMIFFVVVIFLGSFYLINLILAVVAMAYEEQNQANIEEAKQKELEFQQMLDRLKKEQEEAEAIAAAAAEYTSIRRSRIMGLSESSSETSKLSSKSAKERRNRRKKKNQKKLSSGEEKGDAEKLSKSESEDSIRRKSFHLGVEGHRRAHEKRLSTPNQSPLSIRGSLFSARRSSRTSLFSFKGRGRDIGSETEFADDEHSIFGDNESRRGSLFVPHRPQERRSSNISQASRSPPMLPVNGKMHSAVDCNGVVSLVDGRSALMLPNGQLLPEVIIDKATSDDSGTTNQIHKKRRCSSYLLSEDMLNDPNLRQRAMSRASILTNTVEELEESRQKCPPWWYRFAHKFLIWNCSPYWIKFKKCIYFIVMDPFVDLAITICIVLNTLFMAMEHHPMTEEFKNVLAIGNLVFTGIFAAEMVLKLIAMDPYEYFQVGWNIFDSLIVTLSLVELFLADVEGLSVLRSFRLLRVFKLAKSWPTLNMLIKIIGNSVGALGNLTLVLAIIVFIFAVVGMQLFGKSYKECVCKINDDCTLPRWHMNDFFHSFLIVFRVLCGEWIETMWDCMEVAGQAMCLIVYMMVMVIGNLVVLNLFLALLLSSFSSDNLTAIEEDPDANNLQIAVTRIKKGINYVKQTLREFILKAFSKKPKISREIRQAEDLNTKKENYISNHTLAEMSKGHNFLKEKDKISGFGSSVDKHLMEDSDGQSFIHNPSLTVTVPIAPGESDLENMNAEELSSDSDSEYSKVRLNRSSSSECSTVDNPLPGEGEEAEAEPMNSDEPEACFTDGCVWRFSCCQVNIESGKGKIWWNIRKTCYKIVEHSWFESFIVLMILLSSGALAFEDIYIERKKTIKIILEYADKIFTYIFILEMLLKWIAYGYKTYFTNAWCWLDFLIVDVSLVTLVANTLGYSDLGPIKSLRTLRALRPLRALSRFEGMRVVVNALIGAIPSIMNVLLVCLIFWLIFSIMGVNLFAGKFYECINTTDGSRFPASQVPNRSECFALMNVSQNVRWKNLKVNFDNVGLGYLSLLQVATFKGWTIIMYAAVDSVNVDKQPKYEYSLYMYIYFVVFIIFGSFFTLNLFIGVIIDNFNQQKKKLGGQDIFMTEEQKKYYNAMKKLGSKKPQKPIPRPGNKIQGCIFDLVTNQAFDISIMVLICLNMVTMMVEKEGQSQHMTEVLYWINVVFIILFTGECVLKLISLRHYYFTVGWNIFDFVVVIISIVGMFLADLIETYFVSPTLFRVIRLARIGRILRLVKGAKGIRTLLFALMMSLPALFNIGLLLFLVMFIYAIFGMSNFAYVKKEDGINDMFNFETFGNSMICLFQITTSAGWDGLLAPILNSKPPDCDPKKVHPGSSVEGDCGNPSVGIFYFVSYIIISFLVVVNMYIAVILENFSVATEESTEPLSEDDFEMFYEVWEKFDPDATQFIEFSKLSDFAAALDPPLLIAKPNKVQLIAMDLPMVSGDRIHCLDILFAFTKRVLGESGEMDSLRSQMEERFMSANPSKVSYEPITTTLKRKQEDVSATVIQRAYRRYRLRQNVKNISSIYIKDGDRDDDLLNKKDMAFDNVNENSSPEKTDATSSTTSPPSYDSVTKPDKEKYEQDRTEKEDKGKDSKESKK

As for `CCCC[C@@H]1NC(=O)[C@H](Cc2c[nH]c3ccccc23)NC(=O)[C@H](CCCCN)NC(=O)[C@H](CCC(N)=O)NC(=O)[C@@H](NC(=O)[C@H](Cc2ccc(O)cc2)NC(=O)[C@@H](N)CCc2ccccc2)CSSC[C@@H]2NC(=O)[C@@H]3CSSC[C@@H](C(=O)N[C@@H](CCCNC(=N)N)C(=O)N[C@@H](CCCCN)C(=O)N[C@H](C(=O)N[C@H](C(N)=O)[C@@H](C)CC)[C@@H](C)CC)NC(=O)[C@H](Cc4c[nH]c5ccccc45)NC(=O)[C@H](CC(C)C)NC(=O)[C@H](CCCCN)NC(=O)[C@H](CSSC[C@H](NC(=O)[C@H]([C@@H](C)O)NC(=O)[C@H](Cc4c[nH]c5ccccc45)NC1=O)C(=O)N[C@@H](CC(=O)O)C(=O)N[C@@H](CO)C(=O)N[C@@H](CCCCN)C(=O)N[C@@H](CCCNC(=N)N)C(=O)N[C@@H](C)C(=O)N3)NC(=O)[C@H](CCCNC(=N)N)NC(=O)[C@H](CC(C)C)NC(=O)CNC(=O)[C@H](CCC(=O)O)NC2=O` [compound 379], the Nav1.4/Nav1.7 was found to be 10 and the Nav1.5/Nav1.7 was found to be 916.

On to `CCCC[C@@H]1NC(=O)[C@H](Cc2c[nH]c3ccccc23)NC(=O)[C@H](CCCCN)NC(=O)[C@H](CCC(N)=O)NC(=O)[C@@H](NC(=O)[C@H](Cc2ccc(O)cc2)NC(=O)[C@@H](N)CC#N)CSSC[C@@H]2NC(=O)[C@@H]3CSSC[C@@H](C(=O)N[C@@H](CCCNC(=N)N)C(=O)N[C@@H](CCCCN)C(=O)N[C@@H](CCC(=O)O)C(=O)N[C@H](C(N)=O)[C@@H](C)CC)NC(=O)[C@H](Cc4c[nH]c5ccccc45)NC(=O)[C@H](CC(C)C)NC(=O)[C@H](CCCCN)NC(=O)[C@H](CSSC[C@H](NC(=O)[C@H]([C@@H](C)O)NC(=O)[C@H](Cc4c[nH]c5ccccc45)NC1=O)C(=O)N[C@@H](CC(=O)O)C(=O)N[C@@H](CO)C(=O)N[C@@H](CCCCN)C(=O)N[C@@H](CCCNC(=N)N)C(=O)N[C@@H](CCCCNC(=O)CCOCCOCCOCCOCCOCCOCCOCCOCCOCCOCCOCCOCCN)C(=O)N3)NC(=O)[C@H](CCCNC(=N)N)NC(=O)[C@H](CC(C)C)NC(=O)CNC(=O)[C@H](CCC(=O)O)NC2=O` [compound 455], for which the Nav1.4/Nav1.7 stood at 86 and the Nav1.5/Nav1.7 stood at 1101.

For the compound `CCCC[C@@H]1NC(=O)[C@H](Cc2c[nH]c3ccccc23)NC(=O)[C@H](CCCCN)NC(=O)[C@H](CCC(N)=O)NC(=O)[C@@H](NC(=O)[C@H](Cc2ccc(O)cc2)NC(=O)[C@@H](N)CC#N)CSSC[C@@H]2NC(=O)[C@@H]3CSSC[C@@H](C(=O)N[C@@H](CCCNC(=N)N)C(=O)N[C@@H](CCCCN)C(=O)N[C@@H](CCC(=O)O)C(=O)N[C@H](C(N)=O)[C@@H](C)CC)NC(=O)[C@H](Cc4c[nH]c5ccccc45)NC(=O)[C@H](CC(C)C)NC(=O)[C@H](CCCCN)NC(=O)[C@H](CSSC[C@H](NC(=O)[C@H]([C@@H](C)O)NC(=O)[C@H](Cc4c[nH]c5ccccc45)NC1=O)C(=O)N[C@@H](CC(=O)O)C(=O)N[C@@H](CO)C(=O)N[C@@H](CCCCN)C(=O)N[C@@H](CCCNC(=N)N)C(=O)N[C@@H](C)C(=O)N3)NC(=O)[C@H](CCCNC(=N)N)NC(=O)[C@H](CC(C)C)NC(=O)CNC(=O)[C@H](CCCCNC(=O)CCOCCOCCOCCOCCOCCOCCOCCOCCOCCOCCOCCOCCN)NC2=O` [compound 456], the Nav1.4/Nav1.7 is reported as 68 and the Nav1.5/Nav1.7 was found to be 967.
